Series [1] deals with NNC #2 (full-length replicon) cells. Kind of series: Anti-HCV activity using full-length replicon cells (HCV genomic RNA, real-time RT-PCR). It is filed as cell-based. The settings on record: for anti-HCV activity (in words): FIGS. 3 to 6; for pEC50: HCV genomic RNA level, 3 days. On the procedure:
(§1) The 70% confluent #50-1 (subgenomic replion) cells or NNC #2 (full-length replicon) cells (Ishii et al., J. Virol., 2006, vol. 80, pp. 4510-4520) were dispersed in a culture bottle with the aid of trypsin, and the resulting dispersion was resuspended in a high-glucose Dulbecco's modified Eagle medium (DMEM) containing 10% FCS and 1 mg/ml G418 (Sigma) (see FIGS. 1 and 2). The cell suspension adjusted at 5×10^4 cells/ml with the use thereof was added to wells of a 96-well culture plate at 100 μl/well (the final cell density in each well: […]), and culture was conducted at 37° C. Supernatants of culture media were removed from wells of the plate on the following day, 200 μl each of the solutions of test compounds appropriately diluted with a G418-free culture solution were added, and culture was further continued. Samples were prepared from cells in each well 3 days later with the use of the TaqMan® Gene Expression Cell-to-CT® (Applied Biosystems). Reverse transcription was carried out in accordance with the protocols for the ABI 7500 PCR systems (Applied Biosystems) at 37° C. for 60 minutes, 95° C. for 5 minutes, and retained at 4° C. Real-time PCR was carried out in accordance with the protocols for the ABI 7500 real-time PCR systems (Applied Biosystems) at 50° C. for 2 minutes, 95° C. for 10 minutes, 40 cycles at 95° C. for 15 seconds, and 60° C. for 1 minute.
(§2) In accordance with the method mentioned above, the level of the HCV genomic RNA and, as the internal standard, the level of mRNA of glyceraldehyde-3-phosphate dehydrogenase (GAPDH) (a house keeping gene of the host cells) were assayed, and a percentage (%) relative to the level of RNA of a control group to which the test compound was not administered was determined. The dose-response relationship of the test compound was analyzed based on the measured level of the HCV genomic RNA to determine EC50, and the dose-response relationship of the test compound was analyzed based on the measured level of GAPDH RNA to determine CC50. The term “EC50” and “CC50” used herein refers to 50% effective concentration (μM) and 50% cytotoxic concentration (μM), respectively.

Series [2] has the same test system. The experiment in a line: Cytotoxicity in full-length replicon cells (GAPDH mRNA, real-time RT-PCR). The settings on record: GAPDH RNA level, 3 days. It is filed as cell-based. On the procedure: (§3) The 70% confluent #50-1 (subgenomic replion) cells or NNC #2 (full-length replicon) cells (Ishii et al., J. Virol., 2006, vol. 80, pp. 4510-4520) were dispersed in a culture bottle with the aid of trypsin, and the resulting dispersion was resuspended in a high-glucose Dulbecco's modified Eagle medium (DMEM) containing 10% FCS and 1 mg/ml G418 (Sigma) (see FIGS. 1 and 2). The cell suspension adjusted at 5×10^4 cells/ml with the use thereof was added to wells of a 96-well culture plate at 100 μl/well (the final cell density in each well: […]), and culture was conducted at 37° C. […]
(§4) In accordance with the method mentioned above, the level of the HCV genomic RNA and, as the internal standard, the level of mRNA of glyceraldehyde-3-phosphate dehydrogenase (GAPDH) (a house keeping gene of the host cells) were assayed, and a percentage (%) relative to the level of RNA of a control group to which the test compound was not administered was determined. The dose-response relationship of the test compound was analyzed based on the measured level of the HCV genomic RNA to determine EC50, and the dose-response relationship of the test compound was analyzed based on the measured level of GAPDH RNA to determine CC50. […]

In series [3] the test system is #50-1 (subgenomic replion) cells. The experiment in a line: Cytotoxicity in subgenomic replicon cells (GAPDH mRNA, real-time RT-PCR). To be noted: GAPDH RNA level, 3 days. It is filed as cell-based. The procedure:
as §1, §2

For series [4] the test system is unchanged. Kind of series: Anti-HCV activity using subgenomic replicon cells (HCV genomic RNA, real-time RT-PCR). It is filed as cell-based. The settings on record: for pEC50: HCV genomic RNA level, 3 days; for anti-HCV activity (in words): Table 1. The procedure:
as §1, §2

Series [5] in a line: Cytotoxicity (cell survival rate) by tetrazolium staining in luciferase replicon cells. To be noted: human, subgenomic HCV RNA replicon cells (LucNeo#2), LucNeo#2 subgenomic replicon cells. It is filed as cell-based. On the procedure: A tetrazolium staining solution (10 μl, Seikagaku Corporation, Tokyo) was added to each well in order to examine cytotoxicity (a cell survival rate). After the cells were incubated for 1 hour, the absorbance at the characteristic absorption wavelength (450 nm) was measured with the use of a microplate reader.
(§5) Based on the luciferase assay results, the HCV genomic RNA level was measured, and a percentage (%) relative to the level of RNA of a control group to which the test compound was not administered was determined. Based on the results of tetrazolium staining, cell survival rates (%) of the group to which the test compound had been administered and of a control group were determined. The dose-response relationship of the test compound was analyzed based on the results of quantitative luciferase assays to determine EC50(μM), and the dose-response relationship of the test compound was analyzed based on the results of tetrazolium staining to determine CC50.

Series [6] deals with Subgenomic HCV RNA replicon cells (LucNeo#2) having a luciferase gene. Kind of series: Anti-HCV activity using replicon cells (luciferase assay). It is filed as cell-based. The settings on record: Hepatitis C virus, 72 h. The procedure:
Subgenomic HCV RNA replicon cells (LucNeo#2, Goto et al., Biochem. Biophys. Res. Commun., 2006, vol. 343, pp. 879-884) having a luciferase gene were suspended in a Dulbecco's modified Eagle medium (DMEM) containing 10% FBS and 1 mg/ml G418 (Sigma). The cells were incubated for 24 hours and then cultured in G418-free fresh media each containing test compounds at various concentrations for 3 days. In order to perform luciferase assays, the cells were washed with PBS and treated with a lysate for 10 minutes with intermittent agitation. A cell lysate (25 μl) was transferred to a white microtiter plate. Luciferase assay reagents (100 μl, Promega, Tokyo) were added to each well and the luciferase activity was measured with a luminometer.
as §5

Series [7] is described as follows: Cytotoxicity in subgenomic replicon cells (GAPDH mRNA, real-time RT-PCR). It is filed as cell-based. The settings on record: human, #50-1 (subgenomic HCV replicon) cells, GAPDH RNA level. On the procedure:
as §1, §2

Series [8] is described as follows: Cytotoxicity in full-length replicon cells (GAPDH mRNA, real-time RT-PCR). It is filed as cell-based. To be noted: human, NNC #2 (full-length HCV replicon) cells, GAPDH RNA level. The procedure: as §3, §4
The test system of series [9] is HCV replicon cells. To be noted: inhibiting the replication of the HCV genome, Non-Patent Document 8; cited from earlier work.

pEC50, pIC50: −log10 of the molar value.

Turning to `O=c1c2ccccc2c2cc(C(O)(C(F)(F)F)C(F)(F)F)ccc2n1Cc1ccccc1` [AA-04, 2-(1′,1′,1′,3′,3′,3′-hexafluoro-2′-hydroxypropan-2′-yl)-5-benzylphenanthridin-6(5H)-one], the “anti-HCV activity (in words)” value in series [1] was “high degree of anti-HCV activity”.
In the case of `CCCCn1c(=O)c2ccccc2c2cc(C(O)(C(F)(F)F)C(F)(F)F)ccc21` [AA-24, 2-(1′,1′,1′,3′,3′,3′-hexafluoro-2′-hydroxypropan-2′-yl)-5-butyl-phenanthridin-6(5H)-one], the “anti-HCV activity (in words)” value in [1] is recorded as “high degree of anti-HCV activity”. Moreover, the pEC50 in series [1] was 5.55; in series [4] it was 5.40. For the same compound, the figures for the CC50 in series [2] and in series [3] were 11.9 µM and 20.5 µM, respectively.
Regarding `CCCCCCn1c(=O)c2ccccc2c2cc(C(O)(C(F)(F)F)C(F)(F)F)ccc21` [AA-25, 2-(1′,1′,1′,3′,3′,3′-hexafluoro-2′-hydroxypropan-2′-yl)-5-hexylphenanthridin-6(5H)-one], the “anti-HCV activity (in words)” value in series [1] is “high degree of anti-HCV activity”.
Still for that read-out and setting: to `O=c1c2ccccc2c2cc(C(O)(C(F)(F)F)C(F)(F)F)ccc2n1CC1CCCCC1` [AA-26, 2-(1′,1′,1′,3′,3′,3′-hexafluoro-2′-hydroxypropan-2′-yl)-5-cyclohexylmethyl-phenanthridin-6(5H)-one] belongs “high degree of anti-HCV activity”.
Take `CCCCn1c(=O)c2ccccc2c2c(OC)c(C(O)(C(F)(F)F)C(F)(F)F)ccc21` [KZ34, 5-butyl-2-(1′,1′,1′,3′,3′,3′-hexafluoro-2′-hydroxypropan-2-yl)-1-methoxy-phenanthridin-6(5H)-one]: in [5], the CC50 at 3 days came to 25.3 µM. Besides, the pEC50 in series [6] is 5.14.
`CCCCn1c(=O)c2ccccc2c2cc3c(cc21)C(C)(C)CCC3(C)C` [MN256, 6-butyl-8,9,10,11-tetrahydro-8,8,11,11-tetramethylbenzo[2,3-b]phenanthridin-5(6H)-one] registered a CC50 at 3 days in series [7] of 31.7 µM. In addition, the pEC50 in [4] (Hepatitis C virus, 72 h) is 5.30.
As for `CCCCn1c(=O)c2ccccc2c2ccc3ccccc3c21` [MN305, 5-butylbenzo[c]phenanthridin-6(5H)-one], in series [3], half-maximal cytotoxicity (CC50) was put at 24.3 µM. The pEC50 in [4] (Hepatitis C virus, 72 h) is 4.71.
Regarding `CCCCn1c(=O)c2c3ccccc3ccc2c2ccccc21` [MN306, 6-butylbenzo[i]phenanthridin-5(6H)-one], in [7], the CC50 at 3 days was more than 40 µM. Moreover, in series [4] (Hepatitis C virus, 72 h), the pEC50 was 4.52. Further, in series [4], the “anti-HCV activity (in words)” value is listed as “very high degree of anti-HCV activity at non-cytotoxic concentrations”.
In [3], `CCCCn1c(=O)c2ccccc2c2c3ccccc3ccc21` [MN313-A, 6-butylbenzo[a]phenanthridin-5(6H)-one] registered a CC50 of 44.5 µM. In series [4] (Hepatitis C virus, 72 h), this compound gave a pEC50 of 4.54. In addition, in series [4], the “anti-HCV activity (in words)” value is given as “very high degree of anti-HCV activity at non-cytotoxic concentrations”.
Take `CCCCn1c(=O)c2ccccc2c2cc3ccccc3cc21` [MN313-B, 6-butylbenzo[b]phenanthridin-5(6H)-one]: half-maximal cytotoxicity in series [7] (CC50 at 3 days) was put at 6.3 µM. The compound further had a pEC50 in [4] (Hepatitis C virus, 72 h) of 5.49. Also, the “anti-HCV activity (in words)” value in series [4] is “very high degree of anti-HCV activity at non-cytotoxic concentrations”.
As to `CCCCn1c(=O)c2ccc3ccccc3c2c2ccccc21` [MN314-A, 5-butylbenzo[k]phenanthridin-6(5H)-one], in [3], the CC50 is 31.4 µM. Besides, the pEC50 in series [4] (Hepatitis C virus, 72 h) is less than 4.50.
In series [3], `CCCCn1c(=O)c2cc3ccccc3cc2c2ccccc21` [MN314-B, 5-butylbenzo[j]phenanthridin-6(5H)-one] showed a CC50 of more than 40 µM. This compound also gave a CC50 at 3 days in series [7] of 33.5 µM. The “anti-HCV activity (in words)” value in [4] is given as “very high degree of anti-HCV activity at non-cytotoxic concentrations”.
The compound `CCCCn1c(=O)c2ccccc2c2cc(C(C)(C)C)ccc21` [MN325, 5-butyl-2-tert-butylphenanthridin-6(5H)-one] had a CC50 at 3 days in series [7] of 34.4 µM. The pEC50 in series [4] (Hepatitis C virus, 72 h) is 5.21.
For the compound `CCCCn1c(=O)c2ccccc2c2cc(C(C)C)ccc21` [PN-iPr, 5-butyl-2-isopropylphenanthridin-6(5H)-one], the pEC50 in series [1] (Hepatitis C virus, NNC2, 72 h) was 4.79; in [4] (Hepatitis C virus, 72 h), 5.40. Besides, the CC50 at 3 days in series [8] is 27.7 µM; in series [7], 20.5 µM.
With `COc1cc(NC(=O)Nc2cccc(CNC(=O)O[C@H]3CCOC3)c2)ccc1-c1cnco1` [VX497], the pIC50 in [9] was 6.30.
